In patent US20170354148A1, “SAFENED HERBICIDAL COMPOSITIONS CONTAINING HALAUXIFEN AND METHODS OF USE THEREOF IN BRASSICA SPECIES” (Dow AgroSciences LLC, priority 2016, published 2017):
Several values for one entry are separate records, joined by “and”; a condition that tells them apart may be missing. Equal entries are not always repeated.

How the values were obtained:
[1] = test system: kale/Chinese kale (Brassica alboglabra, BRSAG); assay: Example 5 greenhouse trials, postemergence visual injury; settings: for % Visual Injury Obs / Visual Injury Obs: BRSAG
[2] = test system: Nexera™ canola (Brassica napus, BRSNN-NEX); assay: as above; settings: for % Visual Injury Obs / Visual Injury Obs: BRSNN-NEX
[3] = test system: turnip or Polish canola (Brassica rapa, BRSRR); assay: as above; settings: for % Visual Injury Obs / Visual Injury Obs: BRSRR
[4] = test system: Spring Argentine canola (Brassica napus, BRSNS); assay: Example 3 field trials (Canada), postemergence crop safety, visual phytotoxicity; settings: BRSNS
[5] = halauxifen-methyl alone 2.5 g ai/ha
[6] = halauxifen-methyl alone 5 g ai/ha
[7] = halauxifen-methyl alone 10 g ai/ha

COC(=O)c1nc(-c2ccc(Cl)c(OC)c2F)cc(N)c1Cl [Halauxifen-methyl, methyl 4-amino-3-chloro-6-(4-chloro-2-fluoro-3-methoxyphenyl)-2-pyridineccarboxylate]
% Visual Injury Obs ([1]; 2.5 g ai/ha alone, 20-22 d): 6% | % Visual Injury Obs ([1]; 5 g ai/ha alone, 20-22 d): 10% | % Visual Injury Obs ([1]; 10 g ai/ha alone, 20-22 d): 16% | % Visual Injury Obs ([1]; halauxifen-methyl 2.5 g ai/ha): 6% | Visual Injury Obs ([1]; halauxifen-methyl 2.5 g ai/ha): 6% | % Visual Injury Obs ([1]; halauxifen-methyl 5 g ai/ha): 10% | Visual Injury Obs ([1]; halauxifen-methyl 5 g ai/ha): 10% | % Visual Injury Obs ([1]; halauxifen-methyl 10 g ai/ha): 16% | Visual Injury Obs ([1]; halauxifen-methyl 10 g ai/ha): 16% | Percent (%) Visual Injury BRSAG Obs [1, 5]: 6% | Percent (%) Visual Injury BRSAG Obs [1, 6]: 10% | Percent (%) Visual Injury BRSAG Obs [1, 7]: 16% | % Visual Injury Obs ([2]; 2.5 g ai/ha alone, 20-22 d): 15% | % Visual Injury Obs ([2]; 5 g ai/ha alone, 20-22 d): 20% | % Visual Injury Obs ([2]; 10 g ai/ha alone, 20-22 d): 23% | % Visual Injury Obs ([2]; halauxifen-methyl 2.5 g ai/ha): 15% | Visual Injury Obs ([2]; halauxifen-methyl 2.5 g ai/ha): 15% | % Visual Injury Obs ([2]; halauxifen-methyl 5 g ai/ha): 20% | Visual Injury Obs ([2]; halauxifen-methyl 5 g ai/ha): 20% | % Visual Injury Obs ([2]; halauxifen-methyl 10 g ai/ha): 23% | Visual Injury Obs ([2]; halauxifen-methyl 10 g ai/ha): 23% | Percent (%) Visual Injury BRSNN-NEX Obs [2, 5]: 15% | Percent (%) Visual Injury BRSNN-NEX Obs [2, 6]: 20% | Percent (%) Visual Injury BRSNN-NEX Obs [2, 7]: 23% | % Visual Injury Obs ([3]; 2.5 g ai/ha alone, 20-22 d): 5% | % Visual Injury Obs ([3]; 5 g ai/ha alone, 20-22 d): 6% | % Visual Injury Obs ([3]; 10 g ai/ha alone, 20-22 d): 10% | % Visual Injury Obs ([3]; halauxifen-methyl 2.5 g ai/ha): 5% | Visual Injury Obs ([3]; halauxifen-methyl 2.5 g ai/ha): 5% | % Visual Injury Obs ([3]; halauxifen-methyl 5 g ai/ha): 6% | Visual Injury Obs ([3]; halauxifen-methyl 5 g ai/ha): 6% | % Visual Injury Obs ([3]; halauxifen-methyl 10 g ai/ha): 10% | Visual Injury Obs ([3]; halauxifen-methyl 10 g ai/ha): 10% | Percent (%) Visual Injury BRSRR Obs [3, 5]: 5% | Percent (%) Visual Injury BRSRR Obs [3, 6]: 6% | Percent (%) Visual Injury BRSRR Obs [3, 7]: 10% | Mean % Visual Injury ([4]; 7DAAA, 5 g ae/ha (Tables 10, 11)): 0.8% | Mean % Visual Injury ([4]; 15DAAA, 5 g ae/ha (Tables 10, 11)): 50.5% | Mean % Visual Injury ([4]; 27DAAA, 5 g ae/ha (Tables 10, 11)): 48.5% | Mean % Visual Injury ([4]; 57DAAA, 5 g ae/ha (Tables 10, 11)): 30.3% | Mean % Visual Injury ([4]; trial 1, 7DAA1, 1.25 g ae/ha): 1.8% | Mean % Visual Injury ([4]; trial 1, 7DAA1, 2.5 g ae/ha): 1.8% | Mean % Visual Injury ([4]; trial 1, 7DAA1, 5 g ae/ha): 2.0% | Mean % Visual Epinasty ([4]; trial 1, 17DAA1, 0.62 g ae/ha): 2.5% | Mean % Visual Injury ([4]; trial 1, 17DAA1, 0.62 g ae/ha): 2.5% | Mean % Visual Epinasty ([4]; trial 1, 17DAA1, 1.25 g ae/ha): 2.5% | Mean % Visual Injury ([4]; trial 1, 17DAA1, 1.25 g ae/ha): 2.5% | Mean % Visual Epinasty ([4]; trial 1, 17DAA1, 2.5 g ae/ha): 3.0% | Mean % Visual Injury ([4]; trial 1, 17DAA1, 2.5 g ae/ha): 3.3% | Mean % Visual Epinasty ([4]; trial 1, 17DAA1, 5 g ae/ha): 2.5% | Mean % Visual Injury ([4]; trial 1, 17DAA1, 5 g ae/ha): 3.3% | Mean % Visual Epinasty ([4]; trial 1, 32DAA1, 0.62 g ae/ha): 5.0% | Mean % Visual Injury ([4]; trial 1, 32DAA1, 0.62 g ae/ha): 8.3% | Mean % Visual Injury ([4]; trial 1, 32DAA1, 1.25 g ae/ha): 13.0% | Mean % Visual Injury ([4]; trial 1, 49DAA1, 0.62 g ae/ha): 0.3% | Mean % Visual Injury ([4]; trial 1, 49DAA1, 1.25 g ae/ha): 2.3% | Mean % Visual Injury ([4]; trial 1, 49DAA1, 2.5 g ae/ha): 2.5% | Mean % Visual Injury ([4]; trial 2, 8DAA1, 5 g ae/ha): 4.0% and 3.0% and 2.0% | Mean % Visual Injury ([4]; trial 2, 8DAA1, 10 g ae/ha): 4.8% and 3.3% and 2.8% and 2.0% | Mean % Visual Injury ([4]; trial 2, 17DAA1, 10 g ae/ha): 35.5% | Mean % Visual Epinasty ([4]; trial 2, 35DAA1, 10 g ae/ha): 4.0% and 2.8% | Mean % Visual Injury ([4]; trial 2, 48DAA1, 5 g ae/ha): 1.8% and 1.5% | Mean % Visual Epinasty ([4]; trial 3, 6DAA1, 5 g ae/ha): 9.5% | Mean % Visual Epinasty ([4]; trial 3, 6DAA1, 10 g ae/ha): 8.8% | Mean % Visual Epinasty ([4]; trial 3, 23DAA1, 2.5 g ae/ha): 38.8% | Mean % Visual Epinasty ([4]; trial 3, 23DAA1, 5 g ae/ha): 50.0% | Mean % Visual Injury ([4]; trial 3, 33DAA1, 5 g ae/ha): 6.5% and 2.0% | Mean % Visual Injury ([4]; trial 3, 33DAA1, 10 g ae/ha): 5.5% | Mean % Visual Injury ([4]; trial 3, 69DAA1, 2.5 g ae/ha): 3.0% | Mean % Visual Injury ([4]; trial 3, 69DAA1, 5 g ae/ha): 4.0% | Mean % Visual Injury ([4]; trial 4, 8DAA1, 5 g ae/ha): 8.0% | Mean % Visual Injury ([4]; trial 4, 15DAA1, 0.62 g ae/ha): 3.5% | Mean % Visual Injury ([4]; trial 4, 15DAA1, 2.5 g ae/ha): 14.3% | Mean % Visual Epinasty ([4]; trial 4, 17DAA1, 5 g ae/ha): 23.3% | Mean % Visual Injury ([4]; trial 4, 41DAA1, 5 g ae/ha): 8.0% | Mean % Visual Injury ([4]; trial 4, 82DAA1, 5 g ae/ha): 6.0% | Mean % Visual Injury ([4]; trial 5, 7DAA1, 5 g ae/ha): 7.5% | Mean % Visual Injury ([4]; trial 5, 7DAA1, 10 g ae/ha): 9.0% and 3.5% and 2.0% and 1.5% | Mean % Visual Injury ([4]; trial 5, 15DAA1, 5 g ae/ha): 27.0% | Mean % Visual Injury ([4]; trial 5, 15DAA1, 10 g ae/ha): 9.0% and 2.5% and 1.0% | Mean % Visual Injury ([4]; trial 5, 36DAA1, 10 g ae/ha): 6.0% | Mean % Visual Injury ([4]; trial 5, 79DAA1, 10 g ae/ha): 3.0% and 4.5% and 5.3% | Mean % Visual Injury ([4]; trial 6, 6DAA1, 5 g ae/ha): 24.5% | Mean % Visual Injury ([4]; trial 6, 6DAA1, 10 g ae/ha): 27.5% | Mean % Visual Injury ([4]; trial 6, 23DAA1, 2.5 g ae/ha): 38.8% | Mean % Visual Injury ([4]; trial 6, 23DAA1, 5 g ae/ha): 52.5% | Mean % Visual Injury ([4]; trial 6, 33DAA1, 2.5 g ae/ha): 22.5% | Mean % Visual Injury ([4]; trial 6, 33DAA1, 5 g ae/ha): 43.0% | Mean % Visual Injury ([4]; trial 6, 59DAA1, 2.5 g ae/ha): 28.5% | Mean % Visual Injury ([4]; trial 7, 17DAA1, 5 g ae/ha): 45.0% | Mean % Visual Injury ([4]; trial 7, 27DAA1, 5 g ae/ha): 34.0% | Mean % Visual Injury ([4]; trial 8, 7DAA1, 5 g ae/ha): 0.8%
